Assay results from patent publication US7947734B2, “Substituted para-trifluoromethyl phenylate compounds and its preparation and use thereof” (Sinochem Corporation, priority 2005, dated 2011).

Columns and labels:
[1] = tested on: Carmine spider mite (Tetranychus cinnabarinus); experiment: Acaricidal activity, Airbrush spraying tower, mortality
Protocol: (§1) Technical samples were dissolved in acetone/methanol (1:1) and diluted to required concentration with water containing 0.1% of tween 80.
(§2) Armyworm (Leucania separata), diamondback moth (Plutella xylostella) culex mosquitoes (Culex pippens pallens), Myzus persicae (Myzus persicae and Carmine spider mite (Tetranychus cinnabarinus) were treated with Airbrush spraying tower, and culex mosquito was treated with dipping culture method. The pressure of Airbrush spraying tower was 10 psi (about 0.7 kg/cm2) and the amount of spraying was 0.5 ml. Mortality investigation of test insects was carried out 2 to 3 days after the treatment.

[2] = tested on: cucumber downy mildew (Pseudoperonospora cubenis); experiment: Fungicidal protective activity against cucumber downy mildew on potted plants; assay type: in vivo; conditions: 400 mg/L
Myzus persicae = experiment: Insecticidal activity, Airbrush spraying tower, mortality; conditions: 600 mg/L
Protocol: as §1, §2

[3] = tested on: wheat powdery mildew (Blumeria graminis); experiment: Fungicidal protective activity against wheat powdery mildew on potted plants; assay type: in vivo
[4] = tested on: wheat powdery mildew (Blumeria graminis); experiment: Therapy activity against wheat powdery mildew on potted plants; assay type: in vivo
[5] = 0.19 mg/L, wheat powdery mildew
[6] = 0.39 mg/L, wheat powdery mildew
[7] = 0.78 mg/L, wheat powdery mildew
[8] = 1.56 mg/L, wheat powdery mildew
[9] = 3.13 mg/L, wheat powdery mildew
[10] = 6.25 mg/L, wheat powdery mildew
[11] = 12.5 mg/L, wheat powdery mildew

Structure (SMILES) | control against cucumber downy mildew [2] [%] | Protective activity % one day [3, 5] [%] | Protective activity % one day [3, 6] [%] | Protective activity % one day [3, 7] [%] | Protective activity % one day [3, 8] [%] | Protective activity % one day [3, 9] [%] | Protective activity % one day [3, 10] [%] | control against wheat powdery mildew ([3]; 12.5 mg/L) [%] | Protective activity % one day [3, 11] [%] | Protective activity % one day ([3]; 25 mg/L, wheat powdery mildew) [%] | control against wheat powdery mildew ([3]; 200 mg/L) | control against wheat powdery mildew ([3]; 400 mg/L) [%] | other results
CC(C)(C)c1ccc(CSc2cnn(C(C)(C)C)c(=O)c2Cl)cc1 [Pyridaben, reference compound] |  |  |  |  |  |  |  |  |  |  |  |  | control of Carmine spider mite ([1]; 10 mg/L): 95%
COC=C(C(=O)OC)c1ccccc1COc1ccc(C(F)(F)F)cc1Cl [compound 1] | 100 | 30 | 55 | 90 | 100 | 100 | 100 | 100 | 100 | 100 | 100% | 100 | control of Myzus persicae (Myzus persicae): 100%; Therapy activity % 3 days ([4]; 1.56 mg/L): 50%; Therapy activity % 3 days ([4]; 3.125 mg/L): 80%; Therapy activity % 3 days ([4]; 6.25 mg/L): 100%; Therapy activity % 3 days ([4]; 12.5 mg/L): 100%; control of Carmine spider mite ([1]; 10 mg/L): 95%; control of Carmine spider mite ([1]; 50 mg/L): 100%; control of Carmine spider mite ([1]; 150 mg/L): 100%; control of Carmine spider mite ([1]; 600 mg/L): 100%
CON=C(C(=O)OC)c1ccccc1COc1ccc(C(F)(F)F)cc1Cl [compound 4] | 100 | 70 | 90 | 98 | 100 | 100 | 100 | 100 | 100 | 100 | 100% | 100 | control of Carmine spider mite ([1]; 600 mg/L): 100%
CNC(=O)C(=NOC)c1ccccc1COc1ccc(C(F)(F)F)cc1Cl [compound 7] | 100 | 50 | 85 | 90 | 100 | 100 | 100 | 100 | 100 | 100 | 100% | 100 | 
COC(=O)N(OC)c1ccccc1COc1ccc(C(F)(F)F)cc1Cl [compound 10] |  |  |  |  |  |  |  |  |  |  | more than 95% | 100 | 
COC=C(C(=O)OC)c1ccccc1Oc1cc(Oc2ccc(C(F)(F)F)cc2Cl)ncn1 [compound 16] |  |  |  |  |  |  |  |  |  |  |  | 100 | 
CO/N=C(/C(=O)OC)c1ccccc1COc1ccccc1C [kresoxin-methyl, reference compound] |  |  |  |  |  |  |  |  |  |  |  |  | inhibition at 0.19 µg/mL ([3]; Blumeria graminis, 24 h, 0.19 mg/L, wheat powdery mildew, read-out: Protective activity % one day): 0%; inhibition at 0.39 µg/mL ([3]; Blumeria graminis, 24 h, 0.39 mg/L, wheat powdery mildew, read-out: Protective activity % one day): 0%; inhibition at 0.78 µg/mL ([3]; Blumeria graminis, 24 h, 0.78 mg/L, wheat powdery mildew, read-out: Protective activity % one day): 15%; inhibition at 1.56 µg/mL ([3]; Blumeria graminis, 24 h, 1.56 mg/L, wheat powdery mildew, read-out: Protective activity % one day): 40%; inhibition at 3.13 µg/mL ([3]; Blumeria graminis, 24 h, 3.13 mg/L, wheat powdery mildew, read-out: Protective activity % one day): 70%; inhibition at 6.25 µg/mL ([3]; Blumeria graminis, 24 h, 6.25 mg/L, wheat powdery mildew, read-out: Protective activity % one day): 98%; inhibition at 12.5 µg/mL ([3]; Blumeria graminis, 24 h, 12.5 mg/L, wheat powdery mildew, read-out: Protective activity % one day): 100%; inhibition at 25 µg/mL ([3]; Blumeria graminis, 24 h, 25 mg/L, wheat powdery mildew, read-out: Protective activity % one day): 100%; inhibition at 1.56 µg/mL ([4]; Blumeria graminis, 72 h, 1.56 mg/L, read-out: Therapy activity % 3 days): 10%; inhibition at 3.125 µg/mL ([4]; Blumeria graminis, 72 h, 3.125 mg/L, read-out: Therapy activity % 3 days): 15%; inhibition at 6.25 µg/mL ([4]; Blumeria graminis, 72 h, 6.25 mg/L, read-out: Therapy activity % 3 days): 20%; inhibition at 12.5 µg/mL ([4]; Blumeria graminis, 72 h, 12.5 mg/L, read-out: Therapy activity % 3 days): 100%
